Data taken from US20100204045A1, “Systemicity Enhancers” (BASF SE, priority 2007, published 2010).

System: aphids
Assay: Root systemicity of fipronil with polymers: wheat plants in vermiculite drenched, infested with aphids, aphid population counted
Type: in vivo, aphids on wheat plants
Settings: 4 days after infestation, relative to plants not treated with fipronil
Description: To test the root systemicity of fipronil with polymers according to the invention, wheat plants in vermiculite were drenched with 20 ml fipronil/polymer (1:1 wt) solutions in Hoagland solution/acetone mixtures (0.6 v % acetone). Two fipronil and polymer concentrations were used, 3 ppm and 6 ppm. As reference fipronil solutions in Hoagland solution/acetone mixtures without polymer were used. Hoagland solution consists of the following ingredients:
0.25 v % of 1M KNO3 solution in water, 0.1 v % of 1 M MgSO4 solution in water, 0.05 v % of 1M KH2PO4 solution in water, 0.25 v % 1M Ca(NO3)2) solution in water, 0.05 v % of a trace solution consisting of 2.86 g/l H3BO3, 1.81 g/l MnCl2*4H2O, 0.22 g/l ZnSO4*7H2O, 0.08 g/l CuSO4*5H2O, 0.016 g/l MoO3 in water, 0.075 v % Sequestrene 138 Fe consisting of 30 g/l sodium ferric ethylenediamine di-(o-hydroxyphenylacetate) in water, 99.225 v % water sterilized and pH adjusted to 6-6.5 with NaOH.
The plants were then infested with aphids. After 4 days the aphid population on the wheat plants was counted. The results of fipronil and fipronil with polymer are related to the aphid population on plants that had not been treated with fipronil.

N#Cc1nn(-c2c(Cl)cc(C(F)(F)F)cc2Cl)c(N)c1[S+]([O-])C(F)(F)F (stereo not shown) [Reference A, fipronil]
Aphid population (Table 1, 3 ppm fipronil (and polymer, 1:1 wt)): 51% | Aphid population (Table 1, 6 ppm fipronil (and polymer, 1:1 wt)): 23% | Aphid population (Table 2, 3 ppm fipronil (and polymer, 1:1 wt)): 23% | Aphid population (Table 2, 6 ppm fipronil (and polymer, 1:1 wt)): 12%
